Measured values published in PMC9916658, “Design and Synthesis of New Quinazolin-4-one Derivatives with Negative mGlu7 Receptor Modulation Activity and Antipsychotic-Like Properties” (International Journal of Molecular Sciences, 2023).
Entries after “also recorded” stand apart in the source; their conditions may differ.

Assays:
[1] = target: T1, recombinant human mGlu7 receptor (Homo sapiens, UniProt Q14831); assay: NAM mGlu7 activity, forskolin-induced cAMP (HTRF) in T-REx 293 cell line; assay type: cell-based; details: forskolin-stimulated cAMP response, 5 µM LSP4-2022 (EC80), T-REx 293 human mGlu7; for Inhibition (%): 10 μM compound
T1 construct: expressed in transfected cells; host or cells: T-REx 293 (tetracycline-inducible)
Protocol: The cell lines with the tetracycline-inducible expression of human metabotropic receptors 4, 7, and 8 were described in detail by Chruścicka et al. (mGlu4 receptor NM_000841, mGlu7 receptor NM_000844.2, and mGlu8 receptor NM_000845). Cells were grown under standard cell culture conditions (37 °C, 5% CO2) in DMEM supplemented with 10% tetracycline-free FBS. The expression was induced through the addition of tetracycline to the culture medium at 0.75 μg/mL.
The determination of the intracellular cAMP through homogeneous time-resolved fluorescence (HTRF) was described in detail previously. Briefly, 48 h before the experiments, the expression of the receptor was induced through the addition of tetracycline to the culture medium; the next day, FBS and L-Glu were removed from the medium. Just before the cAMP measurement, the cells were detached and centrifuged. Then, the cell suspension in Hanks-HEPES (130 mM NaCl, 5.4 mM KCl, 1.8 mM CaCl2, 0.8 mM MgSO4, 0.9 mM NaH2PO4, 20 mM HEPES, and 3.25 mM glucose; pH 7.4) was incubated in the presence of 10 µM forskolin (mGlu7 receptor, 3 µM forskolin), the agonist LSP4-2022 or L-Glu (for mGlu4 and mGlu8), and a compound for 5 min. The intracellular concentration of cyclic AMP was measured by means of a cAMP Gi HTRF kit from Cisbio, according to the manufacturer’s instructions. After 1 h of incubation at room temperature, the fluorescence at 620 nm and 665 nm was read (Tecan Infinite M1000). The results were calculated as the 665 nm/620 nm ratio multiplied by 10^4. Each sample was prepared in triplicate. Data were analyzed using GraphPad Prism version 5.04 for Windows (GraphPad Software, San Diego, USA).
The activity of the compounds was examined in the T-REx 293-cell-line-expressing recombinant human mGlu7 receptor by detecting the level of cyclic AMP in the presence of 5 µM forskolin [7, 41]. […] The substances were incubated with 5 µM LSP4-2022 (EC80).
Firstly, all compounds were screened at 10 μM using three cell lines expressing the mGlu4/7/8 receptor to evaluate selectivity. For the mGlu4 and mGlu8 receptors, glutamic acid was used as an agonist and had good potency. […] VU0155041 and AZ12216052 were used as reference compounds for the mGlu4 and mGlu8 receptors, respectively. The parameter described as “% of inhibition” was introduced to compare the bioactivity of the new compounds to the reference NAM at a 10 μM concentration in the presence of 5 μM LSP4-2022 (0%) and 3 μM forskolin (100%). […] For compounds that passed the screening procedure, the dose–response curve in the presence of LSP4-2022 in 5 μM was evaluated compared to reference NAM ADX71743. Only compounds ALX-063, ALX-065, and ALX-171 (Figure S3, Supplementary Materials) met our conditions regarding bioactivity. All of them were further investigated to determine the EC50 and receptor selectivity. […]
2.1. NAM mGlu7 receptor activity on T-Rex 293 cell line
The activity of compounds was examined on T-REx 293 cell line expressing recombinant human mGlu7 receptor by detecting the level of cyclic AMP in the presence of 5 µM forskolin [14,15]. The cell line was […]
incubated with 5 µM of LSP4-2022 (EC80).

[2] = target: T1, recombinant human mGlu7 receptor; assay: as above; assay type: cell-based
[3] = system: animal models of schizophrenia; details: mGlu7 PAM; cited from earlier work

T1 sequence (Q14831 35-915): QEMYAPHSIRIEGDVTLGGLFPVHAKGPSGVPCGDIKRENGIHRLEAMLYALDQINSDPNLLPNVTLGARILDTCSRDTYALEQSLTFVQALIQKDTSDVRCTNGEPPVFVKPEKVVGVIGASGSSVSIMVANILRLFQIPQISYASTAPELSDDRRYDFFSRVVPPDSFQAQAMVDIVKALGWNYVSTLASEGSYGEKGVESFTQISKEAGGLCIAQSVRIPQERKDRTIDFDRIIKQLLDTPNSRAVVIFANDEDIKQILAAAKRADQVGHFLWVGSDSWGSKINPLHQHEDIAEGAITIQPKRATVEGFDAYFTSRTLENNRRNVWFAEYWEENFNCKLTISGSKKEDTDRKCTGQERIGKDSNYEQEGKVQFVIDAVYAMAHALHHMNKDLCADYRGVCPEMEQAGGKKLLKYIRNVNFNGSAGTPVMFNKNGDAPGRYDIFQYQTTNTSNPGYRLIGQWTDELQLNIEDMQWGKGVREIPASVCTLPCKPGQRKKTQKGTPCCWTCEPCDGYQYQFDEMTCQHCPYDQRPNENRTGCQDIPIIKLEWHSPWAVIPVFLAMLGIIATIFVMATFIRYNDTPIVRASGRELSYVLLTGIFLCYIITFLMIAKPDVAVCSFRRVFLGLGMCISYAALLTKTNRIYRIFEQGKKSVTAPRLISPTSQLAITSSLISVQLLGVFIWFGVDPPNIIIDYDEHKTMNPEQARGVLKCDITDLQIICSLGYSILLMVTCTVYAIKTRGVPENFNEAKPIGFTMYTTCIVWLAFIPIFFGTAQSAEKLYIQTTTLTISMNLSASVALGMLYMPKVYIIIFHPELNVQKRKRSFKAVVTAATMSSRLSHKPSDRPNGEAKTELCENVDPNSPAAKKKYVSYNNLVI

| Inhibition (%) [1] | SMILES | other results |
| --- | --- | --- |
| Inactive | COc1cc(OC)cc(-c2ccc3nc(-c4ccccc4Cl)n(C)c(=O)c3c2)c1 [A9-11] |  |
| Inactive | COc1ccc(-c2ccc3nc(-c4ccccc4Cl)n(C)c(=O)c3c2)cc1OC [A9-9] |  |
| Inactive | COc1ccc(-c2ccc3nc(-c4ccccc4Cl)n(C)c(=O)c3c2)c(OC)c1 [A9-8] |  |
| Inactive | COc1cccc(-c2ccc3nc(-c4ccccc4Cl)n(C)c(=O)c3c2)c1 [A9-5] |  |
| Inactive | COc1ccc(OC)c(-c2ccc3nc(-c4ccccc4Cl)n(C)c(=O)c3c2)c1 [A9-10] |  |

Continued, compound first:

| SMILES | Inhibition (%) [1] | other results |
| --- | --- | --- |
| COc1ccc(-c2ccc3nc(-c4ccccc4Cl)n(C)c(=O)c3c2)cc1 [A9-6] | not observed; also recorded: Inactive |  |
| Cn1c(-c2ccccc2)nc2ccc(-c3ccccc3)cc2c1=O [ALX-063, 3-methyl-2,6-diphenylquinazolin-4(3H)-one] |  | inhibition at 10 µM ([1]; T-REx-293, 10 μM compound): 42.5 ± 36.5%; IC50 ([2]; T-REx 293 cells expressing human mGlu7, 5 µM LSP4-2022 (EC80), 5 µM forskolin): 6.5 µM |
| N[C@@H](CCC(=O)O)C(=O)O [L-Glu] |  | agonist potency at mGlu7 receptor ([2]; agonist compared with LSP4-2022): ~ 1 mM |
| COc1ccccc1-c1ccc2nc(-c3ccccc3Cl)n(C)c(=O)c2c1 [A9-4] | Inactive |  |
| c1ccc(C(NCCNC(c2ccccc2)c2ccccc2)c2ccccc2)cc1 [AMN082] |  | activity in animal models [3]: propsychotic activity |
| COc1cccc(OC)c1-c1ccc2nc(-c3ccccc3Cl)n(C)c(=O)c2c1 [A9-12] | Inactive |  |
